We go through six compounds from publication PMC5482315 (Biochimica et Biophysica Acta, 2017).

Like-named read-outs stand apart in the source and are kept apart here.

Experiment [1] concerns the target T1, VanSA (Enterococcus faecium, UniProt Q06240). Nature of the experiment: VanSA autophosphorylation activity assay (Universal Kinase Activity Kit). The experiment is classed as biochemical, Enterococcus faecium BM4147. The conditions noted are these: n = 3, result in words; for activity of VanSA (autophosphorylation): 5-fold molar equivalent of ligand, 20 min pre-incubation, 40 min with ATP, 25 mM HEPES pH 8.0, OD620 malachite green; for phosphorylation states of VanSA (activity profile): activity profile over 40 min. On the procedure:
Assays were conducted as per the instructions provided in the R&D Systems Universal Kinase Activity Kit (Catalogue # EA004, R&D), changing the pH to 8.0; therefore all assays were conducted in 25 mM HEPES pH 8.0, 150 mM NaCl, 10 mM MgCl2, and 10 mM CaCl2. Compatibility checks for the activity of CD39L2 were made in the new conditions. A phosphate standard curve in the new assay conditions was used to determine the conversion factor (CF) for CD39L2 by calculating the slope of OD620 × phosphate input (KH2PO4). This CF was used in later calculations to determine the amount of PO4^2 − produced in later experiments. For ligand screens, VanSA (0.2 μg) was incubated in the absence and presence of 5-fold molar equivalent of ligands for 20 min prior to the initiation of autophosphorylation by the addition of ATP; after which autophosphorylation was allowed to proceed for 40 min before reactions were stopped by the addition of 30 μl Malachite Green Reagent A (ammonium molybdate in 3 M sulphuric acid) at t = 60. 100 μl distilled H2O was added to each well, followed by 30 μl of Malachite Reagent B (malachite green oxalate and polyvinyl alcohol) and the colour allowed to develop for 20 min before determining the optical density at 620 nm.

Experiment [2] deals with T1, VanSA. Nature of the experiment: thermal denaturation of VanSA by far-UV CD (melting temperature). The experiment is classed as binding, Enterococcus faecium BM4147. The conditions noted are these: 5-fold molar equivalent of ligand; for Melting temperature (Tm) of VanSA in the presence of screened ligands: monitored at 222 nm, 20–95 °C in 5 °C increments, 10 mM Tris–HCl pH 8.0 ligand stocks, 30 min at 20 °C, VanSA alone 44 ± 0.71. Here is the method: (§1) Ligand-containing samples were performed by addition of 5-fold molar equivalent of ligand stocks in 10 mM Tris–HCl pH 8.0 (control incubated with equivalent volume of 10 mM Tris–HCl pH 8.0). All samples were incubated at 20 °C for 30 min prior to data collection. All data was analysed using CDApps where the mean residue weight of VanSA was taken to be 113. Unless otherwise stated, all spectra presented are difference spectra where all relevant background buffers, ligands etc. have been subtracted. Data acquired when the HT of the detector (PMT) was equal to or > 600 V were excluded from the analyses. Far-UV measurements (180–260 nm) were commonly collected using 0.5 mg/ml of VanSA with bandwidth of 1 nm and 1 s integration time. Data presented in molar extinction (Δε). Temperature denaturation measurements were collected over the temperatures (20 °C–95 °C, in 5 °C increments) in the absence and presence of ligands. Samples were incubated at the initial 20 °C for 30 min after ligand or solvent addition prior to data acquisition. At each temperature step, reactions were incubated for 2 min prior to data collection (1 scan). A final scan was acquired post-temperature ramp after returning to 20 °C and incubation for 20 min before data acquisition. Data was analysed using CDApps to obtain difference spectra where all controls (buffers, ligands, etc.) had been subtracted. Change in CD (mdeg) at a specific wavelength was transferred to OriginPro® 9 and plotted against the corresponding temperature for fitting using Gibbs-Helmholtz equation derived from Boltzmann distribution, [65] sigmoidal two-state denaturation curve to a Boltzmann distribution and the expression modified to include parameters for fitting of thermal denaturation data for the calculation of the melting temperature (Tm).

Experiment [3] deals with T1, VanSA. Nature of the experiment: near-UV CD titration of VanSA with ligand (binding constant). Further details: species or system Enterococcus faecium BM4147. On the procedure:
as §1
Near-UV measurements (260–350 nm) were collected using 1 mg/ml of protein using 10 mm pathlength cell, 2 nm bandwidth, 1 nm increments and 1 s integration. Titration experiments were conducted as described for standard near-UV measurements, with the modification of measurements collected after the addition of incremental volumes of ligand stock as described previously, [70]. Change in CD (mdeg) a specific wavelength was monitored, the values transferred to OriginPro® and plotted against respective ligand concentration (M) and fitted with a hill1 binding or biphasic dose response function to determine the kd for binding.

Experiment [4] deals with T1, VanSA. Nature of the experiment: fluorescence emission of VanSA Trp residues with antibiotics. It counts as binding, Enterococcus faecium BM4147. The conditions noted are these: excitation 295 nm, equivalent ratio 1:7, 23 °C; n = 3; VanSA alone λmax 334 nm (blue shift). Here is the method: Fluorescence spectroscopy was carried out using a Chirascan-Plus CD Spectrometer (Applied Photophysics) using 1 cm pathlength cell (1 cm × 1 cm, 4 mm × 4 mm window) at 23 °C, 5 nm bandwidth and 600 V, 295 nm excitation wavelength to excite the VanSA Trp residues was applied to the sample and emission monitored between 300 and 500 nm in 1 nm increments. Samples incubated at 20 °C for 30 min prior to data collection.
Data analysis performed using CDApps to obtain values which have been buffer subtracted and dilution-corrected for all components (F values) (protein only, ligand only, protein-ligand). Fo values were determined by normalisation to the initial value for each condition, followed by calculation of F/Fo using OriginPro® 9. Standard deviation (n = 3) shown by error bars.

A further experiment has as its system VanSsc. Further details: method as in PMID 20383152. The settings on record: result in words; cited from earlier work. From the text:
The nature of the activating inducer for VanA-type resistance remains unknown. […] Other proposed ligands include the antibiotic-peptidoglycan precursor complex and the accumulating peptidoglycan precursors as a result of vancomycin mode of action, [54]. Here, we describe the use of in vitro approaches to further characterise the ligand-induced activities of VanSA. || Previous studies identified a 4-amino-acid motif (DQGW) from the predicted extracellular binding region of VanSsc (equivalent to the type B VanS receptor in soil actinomycetes) to which a modified vancomycin photoaffinity probe bound.

Experiment [5] concerns the target T1, VanSA. Nature of the experiment: near-UV CD ligand binding screen of VanSA. Also noted: species or system Enterococcus faecium BM4147. The settings on record: 5-fold molar equivalent of ligand, qualitative. On the procedure:
Ligand-containing samples were performed by addition of 5-fold molar equivalent of ligand stocks in 10 mM Tris–HCl pH 8.0 (control incubated with equivalent volume of 10 mM Tris–HCl pH 8.0). All samples were incubated at 20 °C for 30 min prior to data collection. All data was analysed using CDApps where the mean residue weight of VanSA was taken to be 113. Unless otherwise stated, all spectra presented are difference spectra where all relevant background buffers, ligands etc. have been subtracted. Data acquired when the HT of the detector (PMT) was equal to or > 600 V were excluded from the analyses. Far-UV measurements (180–260 nm) were commonly collected using 0.5 mg/ml of VanSA with bandwidth of 1 nm and 1 s integration time. Data presented in molar extinction (Δε). […] Data was analysed using CDApps to obtain difference spectra where all controls (buffers, ligands, etc.) had been subtracted. […]
Near-UV measurements (260–350 nm) were collected using 1 mg/ml of protein using 10 mm pathlength cell, 2 nm bandwidth, 1 nm increments and 1 s integration. […] Change in CD (mdeg) a specific wavelength was monitored, the values transferred to OriginPro® and plotted against respective ligand concentration (M) and fitted with a hill1 binding or biphasic dose response function to determine the kd for binding.

The conditions of experiment [6]: cited from earlier work; for Kd: surface plasmon resonance and other studies, read-out: kd for vancomycin binding. An excerpt:
Using model cell wall precursor peptides such as N-acetyl-D-Ala-D-Ala, binding studies in aqueous solution have established that for many glycopeptides, the formation of entropically favourable asymmetric, back-to-back homodimers of the antibiotic, [11], [12] is mediated by sugar-sugar recognition, [13].

T1 sequence (Q06240 whole entry): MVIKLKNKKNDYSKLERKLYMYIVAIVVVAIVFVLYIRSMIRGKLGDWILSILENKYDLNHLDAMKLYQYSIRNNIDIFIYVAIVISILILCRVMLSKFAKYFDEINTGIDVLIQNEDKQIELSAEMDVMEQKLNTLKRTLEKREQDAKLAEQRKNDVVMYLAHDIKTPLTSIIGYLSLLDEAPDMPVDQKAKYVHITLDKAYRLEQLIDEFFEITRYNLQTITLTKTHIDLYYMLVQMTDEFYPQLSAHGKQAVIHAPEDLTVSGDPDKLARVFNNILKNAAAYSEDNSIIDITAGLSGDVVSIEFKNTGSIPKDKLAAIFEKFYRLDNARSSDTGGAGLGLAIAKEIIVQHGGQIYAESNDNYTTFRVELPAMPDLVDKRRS

Regarding `CC(=O)N[C@@H]1[C@@H](O)[C@H](O)[C@@H](CO)O[C@H]1O` [N-acetylglucosamine, N-Acetyl-D-glucosamine], the “activity of VanSA (autophosphorylation)” value at VanSA [1] was “decreases in activity”.

On to `CC(=O)N[C@H]1C(O)O[C@H](CO)[C@@H](O)[C@@H]1O[C@H](C)C(=O)O` (some centres unmarked) [N-acetylmuramic acid, N-Acetylmuramic acid], for which the “activity of VanSA (autophosphorylation)” value on VanSA [1] was “decreases in activity”. Further, the “Melting temperature (Tm) of VanSA in the presence of screened ligands” value (“Melting temperature (Tm) of VanSA” for short) on VanSA [2] stood at 44 ± 0.63 °C.

In the case of `CN[C@H](CC(C)C)C(=O)N[C@H]1C(=O)N[C@@H](CC(N)=O)C(=O)N[C@H]2C(=O)N[C@H]3C(=O)N[C@H](C(=O)N[C@H](C(=O)O)c4cc(O)cc(O)c4-c4cc3ccc4O)[C@H](O)c3ccc(c(Cl)c3)Oc3cc2cc(c3O[C@@H]2O[C@H](CO)[C@@H](O)[C@H](O)[C@H]2O[C@H]2C[C@](C)(N)[C@H](O)[C@H](C)O2)Oc2ccc(cc2Cl)[C@H]1O` [vancomycin], the Kd at VanSA [3] is 70 µM; in experiment [6] (ref 17), 1.32 µM; in experiment [6] (ref 18), 2.7 µM; in experiment [6] (ref 19) it was 3.39 µM. On VanSA [3] (near-UV CD titration), the binding mechanism result was “one-step process of moderate affinity”. The same compound had a Hill coefficient at VanSA [3] (near-UV CD titration, Hill 1 function) of 1.65 ± 0.84. Further, the “fluorescence emission λmax of VanSA upon addition of antibiotic” value on VanSA [4] amounted to 328 nm. Moreover, the “binding to VanS of actinomycetes” value with VanSsc was “shown to bind in type A equivalent systems of actinomycetes”. Moreover, the “activity of VanSA (autophosphorylation)” value on VanSA [1] is “significant increases in the activity”. The “phosphorylation states of VanSA (activity profile)” value on VanSA [1] is “quicker, longer-lived phosphorylation states”. Moreover, the “changes in local tertiary structure (tyrosine/tryptophan region)” value at VanSA [5] is “changes to the tyrosine/tryptophan region”. For the same compound, the “thermal stability of VanSA” value on VanSA [2] (far-UV thermal denaturation, result in words) is recorded as “significant increase of the thermal stability”. Besides, the “Melting temperature (Tm) of VanSA” value at VanSA [2] was 79 ± 4.04 °C.

Take teicoplanin: at VanSA [3] (near-UV CD titration), the binding mechanism entry is reported as “two-step mechanism”. Further, the Hill coefficient on VanSA [3] (near-UV CD titration, Bi Dose Response function, two-step, first value) is recorded as 0.97 ± 0.77; on VanSA [3] (near-UV CD titration, Bi Dose Response function, two-step, second value) it was 0.977 ± 0.76. Besides, the Kd came to 170 µM at VanSA [3] (near-UV CD titration, change in CD (mdeg) at 292 nm, BidoseResponse function, two-step mechanism, first value printed in picture, VanSA 1 mg/ml, n = 4, read-out: Binding constant (kd)) and 30 µM at VanSA [3] (near-UV CD titration, change in CD (mdeg) at 292 nm, BidoseResponse function, two-step mechanism, second value printed in picture, VanSA 1 mg/ml, n = 4, read-out: Binding constant (kd)). In addition, the “fluorescence emission λmax of VanSA upon addition of antibiotic” value on VanSA [4] is 329 nm. For the same compound, the “activity of VanSA (autophosphorylation)” value on VanSA [1] was “significant increases in the activity”. For the same compound, the “phosphorylation states of VanSA (activity profile)” value at VanSA [1] is “quicker, longer-lived phosphorylation states”. Also, the “changes in local tertiary structure (tyrosine/tryptophan region)” value on VanSA [5] is recorded as “changes to the tyrosine/tryptophan region”. Also, in experiment [6] (in vitro and in vivo, result in words), the “potency compared with vancomycin” value is on record as “greater potency than vancomycin”. The “Melting temperature (Tm) of VanSA” value at VanSA [2] amounted to 47 ± 5.08 °C.

As to D-Ala-D-Ala, at VanSA [2], the “Melting temperature (Tm) of VanSA” value came out at 48 ± 4.07 °C.

For the compound “Ala-D-γ-Glu-Lys-D-Ala-D-Ala [peptidoglycan component]”, the “Melting temperature (Tm) of VanSA” value on VanSA [2] was 51 ± 3.23 °C.
